This is an account of results in article PMC8424217 (The Journal of Biological Chemistry, 2021).

Peptide text beside a SMILES is read from it. * marks the point of attachment. Palmitoyl = CCCCCCCCCCCCCCCC(=O)*

Data set [1] has as its system HEK 293 cells. The protocol: Pepducins are composed of a synthetic peptide, mimicking an intracellular GPCR loop, to which a hydrophobic moiety, most commonly the fully saturated C16 fatty acid palmitate, is conjugated at their N-termini ([39]). […] The second pepducin ([Trp^1, Leu^2]hUT-Pep3) comprises the hUT ICL3 sequence; however, the first two N-terminal amino acids were replaced by the corresponding residues from rat UT ICL3 (-Arg-Arg-in hUT and -Trp-Leu- in rUT).
Toxicity of hUT-derived pepducins was evaluated using (A) MTT or (B) LDH assays in HEK 293-hUT cells.
HEK 293 cells were seeded at a density of 2 × 10^4 cells/well in 96 well-plates and cultured at 37 °C for 24 h. Cells were then incubated in serum-free media with hUT-derived pepducins at various concentrations (10^−8 M–10^−4 M). Viability was assessed with an MTS kit (CellTiter 96 AQueous, Promega) and a microplate reader (MTX^TC Revelation, Dynex Tech) in order to determine the optical density related to the conversion of MTS into purple-colored water-soluble formazan. Positive control (cells treated with 10% DMSO) and negative control (nontreated cells) were included in each experiment. Results were expressed as the percentage of control (nontreated cells). The presence of lactate dehydrogenase (LDH), released in the culture medium from dead cells, was also determined using a commercial LDH kit (BioVision). Positive control (cells treated with lysis buffer) and negative control (nontreated cells) were included in each experiment. Results were expressed as the percentage of the maximum LDH release following cell lysis.

For data set [2], the target named is T1, hUT (Homo sapiens, UniProt Q9UKP6).
T1 sequence (Q9UKP6 1-389): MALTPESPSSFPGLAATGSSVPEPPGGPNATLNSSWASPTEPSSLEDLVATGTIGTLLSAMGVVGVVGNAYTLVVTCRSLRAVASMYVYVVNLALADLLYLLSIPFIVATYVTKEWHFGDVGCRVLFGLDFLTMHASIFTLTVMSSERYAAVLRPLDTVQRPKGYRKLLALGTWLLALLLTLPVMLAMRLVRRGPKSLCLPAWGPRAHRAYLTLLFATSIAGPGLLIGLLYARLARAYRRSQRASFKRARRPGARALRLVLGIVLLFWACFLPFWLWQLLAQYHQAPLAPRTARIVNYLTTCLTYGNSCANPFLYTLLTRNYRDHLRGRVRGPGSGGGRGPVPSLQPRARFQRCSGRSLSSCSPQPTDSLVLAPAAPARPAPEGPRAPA
Kind of data set: Antagonism of hUII- or URP-mediated G12 activation, BRET, HEK 293-hUT cells. Format: cell-based. Also noted: expressed in transfected cells. As to conditions: pepducin 10^−5 M for 15 min, then hUII or URP, at least three experiments in triplicate. The protocol: Figure 10 Effect of hUT-pepducins on hUT-mediated G12activation. […] Each curve represents mean ± SEM of at least three independent concentration–response experiments performed in triplicate.
HEK 293-hUT cells were grown in DMEM culture media supplemented with 10% foetal bovine serum, HEPES, sodium pyruvate, and G418 (200 μg mL^−1). Passages were performed when cells reached 80% of confluency. Cells were initially plated in 96-well plates at a density of 10,000 cells/well. […] Then, to evaluate Gq and G12 activation, 10 μl of a 1/20 dilution (diluted before use) of coelenterazine 400A (stock at 1 mM in ethanol) in Kreb's buffer and 10 μl of the 10× appropriate concentration of peptide were added, and the luminescence was evaluated with an Infinite M1000 PRO. […] Readings were performed after 5 min using an Infinite M1000 PRO. […] BRET ratio was determined by calculating the ratio of the light emitted by GFP10 over the light emitted by the RlucII.
(In general: BRET reads energy transfer from a luciferase to a nearby fluorophore.)

With `CCCCCCCCCCCCCCCC(=O)N[C@@H](CCCNC(=N)N)C(=O)N1CCC[C@H]1C(=O)N[C@@H](CC(C)C)C(=O)N[C@@H](CC(=O)O)C(=O)N[C@H](C(=O)N[C@H](C(=O)N[C@@H](CCC(N)=O)C(=O)N[C@@H](CCCNC(=N)N)C(=O)N1CCC[C@H]1C(=O)N[C@@H](CCCCN)C(=O)NCC(=O)N[C@@H](Cc1ccc(O)cc1)C(N)=O)C(C)C)[C@@H](C)O` [hUT-Pep2] (Palmitoyl-RPLDTVQRPKGY-NH2), in data set [1], the “effect on cell viability at 10^−4 M” value was “as cytotoxic as unmodified hUT-Pep3 at 10^−7 M” and the “effect on cell viability up to 10^−5 M” value is given as “did not significantly affect HEK 293 cell viability”. For the same compound, the “hUII- and URP-mediated G12 activation after pepducin pretreatment” value in data set [2] was “completely abolished hUII- and URP-associated G12 stimulation”.
In the case of `CCCCCCCCCCCCCCCC(=O)N[C@@H](Cc1c[nH]c2ccccc12)C(=O)N[C@@H](CC(C)C)C(=O)N[C@@H](CO)C(=O)N[C@@H](CCC(N)=O)C(=O)N[C@@H](CCCNC(=N)N)C(=O)N[C@@H](C)C(=O)N[C@@H](CO)C(=O)N[C@@H](Cc1ccccc1)C(=O)N[C@@H](CCCCN)C(=O)N[C@@H](CCCNC(=N)N)C(=O)N[C@@H](C)C(=O)N[C@@H](CCCNC(=N)N)C(=O)N[C@@H](CCCNC(=N)N)C(N)=O` [[Trp^1, Leu^2]hUT-Pep3] (Palmitoyl-WLSQRASFKRARR-NH2), in data set [1], the “effect on cell viability at 10^−4 M” value is on record as “as cytotoxic as unmodified hUT-Pep3 at 10^−7 M” and the “effect on cell viability up to 10^−5 M” value is recorded as “did not significantly affect HEK 293 cell viability”. In data set [2], the “hUII- and URP-mediated G12 activation after pepducin pretreatment” value was “completely abolished hUII- and URP-associated G12 stimulation”.
